# Results as given in ChEMBL document CHEMBL4308841, “Synthesis, in vitro antiproliferative activity, and kinase inhibitory effects of pyrazole-containing diarylureas and diarylamides” (Eur J Med Chem, 2018).
# How the values were obtained:
# SK-MEL-5 = test: Growth inhibition of human SK-MEL-5 cells assessed as cell growth at 10 uM incubated for 48 hrs by sulforhodamine B assay relative to control; assay type: functional; conditions: SK-MEL-5, 48 h, read-out: Activity
# MDA-MB-231 [1] = test: Growth inhibition of human MDA-MB-231 cells assessed as cell growth at 10 uM incubated for 48 hrs by sulforhodamine B assay relative to control; assay type: functional; conditions: MDA-MB-231, 48 h, read-out: Activity
# MCF7 = test: Growth inhibition of human MCF7 cells assessed as cell growth at 0.1 uM incubated for 48 hrs by sulforhodamine B assay relative to control; assay type: functional; conditions: MCF7, 48 h, read-out: Activity
# BT-549 = test: Growth inhibition of human BT549 cells assessed as cell growth at 10 uM incubated for 48 hrs by sulforhodamine B assay relative to control; assay type: functional; conditions: BT-549, 48 h, read-out: Activity
# U-251 = test: Growth inhibition of human U251 cells assessed as cell growth at 1 uM incubated for 48 hrs by sulforhodamine B assay relative to control; assay type: functional; conditions: U-251, 48 h, read-out: Activity
# SK-MEL-28 = test: Growth inhibition of human SK-MEL-28 cells assessed as cell growth at 10 uM incubated for 48 hrs by sulforhodamine B assay relative to control; assay type: functional; conditions: SK-MEL-28, 48 h, read-out: Activity
# HCT-116 = test: Growth inhibition of human HCT116 cells assessed as cell growth at 10 uM incubated for 48 hrs by sulforhodamine B assay relative to control; assay type: functional; conditions: HCT-116, 48 h, read-out: Activity
# NCI-H23 = test: Growth inhibition of human NCI-H23 cells assessed as cell growth at 10 uM incubated for 48 hrs by sulforhodamine B assay relative to control; assay type: functional; conditions: NCI-H23, 48 h, read-out: Activity
# NCI-H322M = test: Growth inhibition of human NCI-H322M cells assessed as cell growth at 10 uM incubated for 48 hrs by sulforhodamine B assay relative to control; assay type: functional; conditions: read-out: Activity
# A498 = test: Growth inhibition of human A498 cells assessed as cell growth at 0.1 uM incubated for 48 hrs by sulforhodamine B assay relative to control; assay type: functional; conditions: A498, 48 h, read-out: Activity
# COLO 205 [2] = test: Growth inhibition of human COLO205 cells assessed as cell growth at 0.1 uM incubated for 48 hrs by sulforhodamine B assay relative to control; assay type: functional; conditions: COLO 205, 48 h, read-out: Activity
# PC-3 = test: Growth inhibition of human PC3 cells assessed as cell growth at 10 uM incubated for 48 hrs by sulforhodamine B assay relative to control; assay type: functional; conditions: PC-3, 48 h, read-out: Activity
# HCT-15 = test: Growth inhibition of human HCT15 cells assessed as cell growth at 10 uM incubated for 48 hrs by sulforhodamine B assay relative to control; assay type: functional; conditions: HCT-15, 48 h, read-out: Activity
# COLO 205 [3] = test: Growth inhibition of human COLO205 cells assessed as cell growth at 10 uM incubated for 48 hrs by sulforhodamine B assay relative to control; assay type: functional; conditions: COLO 205, 48 h, read-out: Activity
# NCI-H460 = test: Growth inhibition of human NCI-H460 cells assessed as cell growth at 10 uM incubated for 48 hrs by sulforhodamine B assay relative to control; assay type: functional; conditions: NCI-H460, 48 h, read-out: Activity
# UO-31 = test: Growth inhibition of human UO31 cells assessed as cell growth at 10 uM incubated for 48 hrs by sulforhodamine B assay relative to control; assay type: functional; conditions: UO-31, 48 h, read-out: Activity
# M14 = test: Growth inhibition of human M14 cells assessed as cell growth at 10 uM incubated for 48 hrs by sulforhodamine B assay relative to control; assay type: functional; conditions: M14, 48 h, read-out: Activity
# HOP-62 = test: Growth inhibition of human HOP62 cells assessed as cell growth at 10 uM incubated for 48 hrs by sulforhodamine B assay relative to control; assay type: functional; conditions: HOP-62, 48 h, read-out: Activity
# SF-539 [4] = test: Growth inhibition of human SF539 cells assessed as cell growth at 10 uM incubated for 48 hrs by sulforhodamine B assay relative to control; assay type: functional; conditions: SF-539, 48 h, read-out: Activity
# KM12 = test: Growth inhibition of human KM12 cells assessed as cell growth at 10 uM incubated for 48 hrs by sulforhodamine B assay relative to control; assay type: functional; conditions: KM12, 48 h, read-out: Activity
# MDA-MB-468 = test: Growth inhibition of human MDA-MB-468 cells assessed as cell growth at 10 uM incubated for 48 hrs by sulforhodamine B assay relative to control; assay type: functional; conditions: MDA-MB-468, 48 h, read-out: Activity
# Malme-3M = test: Growth inhibition of human MALME-3M cells assessed as cell growth at 10 uM incubated for 48 hrs by sulforhodamine B assay relative to control; assay type: functional; conditions: read-out: Activity
# MDA-MB-231 [5] = test: Growth inhibition of human MDA-MB-231 cells incubated for 48 hrs by sulforhodamine B assay; assay type: functional, cell-based; conditions: MDA-MB-231, 48 h
# CCRF-CEM = test: Growth inhibition of human CCRF-CEM cells assessed as cell growth at 10 uM incubated for 48 hrs by sulforhodamine B assay relative to control; assay type: functional; conditions: read-out: Activity
# K562 = test: Growth inhibition of human K562 cells assessed as cell growth at 10 uM incubated for 48 hrs by sulforhodamine B assay relative to control; assay type: functional; conditions: K562, 48 h, read-out: Activity
# LOX IMVI = test: Growth inhibition of human LOXIMVI cells assessed as cell growth at 10 uM incubated for 48 hrs by sulforhodamine B assay relative to control; assay type: functional; conditions: read-out: Activity
# OVCAR-3 = test: Growth inhibition of human OVCAR3 cells assessed as cell growth at 0.1 uM incubated for 48 hrs by sulforhodamine B assay relative to control; assay type: functional; conditions: OVCAR-3, 48 h, read-out: Activity
# COLO 205 [6] = test: Growth inhibition of human COLO205 cells assessed as cell growth at 0.01 uM incubated for 48 hrs by sulforhodamine B assay relative to control; assay type: functional; conditions: COLO 205, 48 h, read-out: Activity
# SF-539 [7] = test: Growth inhibition of human SF539 cells incubated for 48 hrs by sulforhodamine B assay; assay type: functional, cell-based; conditions: SF-539, 48 h
# OVCAR-5 = test: Growth inhibition of human OVCAR5 cells incubated for 48 hrs by sulforhodamine B assay; assay type: functional, cell-based; conditions: OVCAR-5, 48 h
# UACC-257 = test: Growth inhibition of human UACC257 cells assessed as cell growth at 0.1 uM incubated for 48 hrs by sulforhodamine B assay relative to control; assay type: functional; conditions: UACC-257, 48 h, read-out: Activity
# [8] = read-out: LC50 (the source's name)
# [9] = read-out: pLC50 (the source's name) (converted)
smiles,measurement,setting,value
COc1cc(Cl)cc(-c2nn(-c3cccc(NC(=O)c4cccc(C(F)(F)F)c4)c3)cc2-c2ccncc2)c1,growth at 10 µM,SK-MEL-5,70.7%
same,growth at 10 µM,MDA-MB-231 [1],21.4%
same,growth at 0.1 µM,MCF7,92%
same,growth at 10 µM,BT-549,89.5%
same,growth at 1 µM,U-251,65%
same,growth at 10 µM,SK-MEL-28,70.3%
same,growth at 10 µM,HCT-116,34.1%
same,growth at 10 µM,NCI-H23,55.6%
same,growth at 10 µM,NCI-H322M,78.6%
same,growth at 0.1 µM,A498,52%
same,growth at 0.1 µM,COLO 205 [2],101%
same,growth at 10 µM,PC-3,23.1%
same,growth at 10 µM,HCT-15,33.2%
same,growth at 10 µM,COLO 205 [3],68.5%
same,growth at 10 µM,NCI-H460,41.1%
same,growth at 10 µM,UO-31,37.2%
same,growth at 10 µM,M14,56.3%
same,growth at 10 µM,HOP-62,71.6%
same,growth at 10 µM,SF-539 [4],64.2%
same,growth at 10 µM,KM12,43.7%
same,growth at 10 µM,MDA-MB-468,47%
same,growth at 10 µM,Malme-3M,92.4%
same,GI50,MDA-MB-231 [5]; read-out: GI50,1380 nM
same,CC50,MDA-MB-231 [5]; [8],> 100 µM
same,TGI,MDA-MB-231 [5]; read-out: TGI,99.7 µM
same,GI50,MDA-MB-231 [5]; read-out: pGI50 (converted),1380 nM
same,CC50,MDA-MB-231 [5]; [9],> 100 µM
same,TGI,MDA-MB-231 [5]; read-out: pTGI (converted),10 µM
same,growth at 10 µM,CCRF-CEM,42.3%
same,growth at 10 µM,K562,26%
same,growth at 10 µM,LOX IMVI,51.7%
same,growth at 0.1 µM,OVCAR-3,108%
same,growth at 0.01 µM,COLO 205 [6],108%
same,GI50,SF-539 [7]; read-out: GI50,> 100000 nM
same,CC50,SF-539 [7]; [8],> 100 µM
same,TGI,SF-539 [7]; read-out: TGI,> 100 µM
same,GI50,SF-539 [7]; read-out: pGI50 (converted),> 100000 nM
same,CC50,SF-539 [7]; [9],> 100 µM
same,TGI,SF-539 [7]; read-out: pTGI (converted),> 100 µM
same,GI50,OVCAR-5; read-out: GI50,> 100 µM
same,CC50,OVCAR-5; [8],> 100 µM
same,TGI,OVCAR-5; read-out: TGI,> 100 µM
same,GI50,OVCAR-5; read-out: pGI50 (converted),> 100 µM
same,CC50,OVCAR-5; [9],> 100 µM
same,TGI,OVCAR-5; read-out: pTGI (converted),> 100 µM
same,growth at 0.1 µM,UACC-257,91%
COc1cc(Cl)cc(-c2nn(-c3cccc(NC(=O)Nc4cccc(C(F)(F)F)c4)c3)cc2-c2ccncc2)c1,growth at 10 µM,SK-MEL-5,5.3%
same,growth at 10 µM,MDA-MB-231 [1],-9.21%
same,growth at 0.1 µM,MCF7,102%
same,growth at 10 µM,BT-549,12.9%
same,growth at 1 µM,U-251,47%
same,growth at 10 µM,SK-MEL-28,14.1%
same,growth at 10 µM,HCT-116,5.07%
same,growth at 10 µM,NCI-H23,-5.1%
same,growth at 10 µM,NCI-H322M,26.2%
same,growth at 0.1 µM,A498,92%
same,growth at 0.1 µM,COLO 205 [2],101%
same,growth at 10 µM,PC-3,-9.92%
same,growth at 10 µM,HCT-15,7.83%
same,growth at 10 µM,COLO 205 [3],-31.2%
same,growth at 10 µM,NCI-H460,-6.11%
same,growth at 10 µM,UO-31,-4.59%
same,growth at 10 µM,M14,9.99%
same,growth at 10 µM,HOP-62,15.5%
same,growth at 10 µM,SF-539 [4],17%
same,growth at 10 µM,KM12,9.81%
same,growth at 10 µM,MDA-MB-468,6.89%
same,growth at 10 µM,Malme-3M,-16.6%
same,GI50,MDA-MB-231 [5]; read-out: GI50,1590 nM
same,CC50,MDA-MB-231 [5]; [8],> 100 µM
same,TGI,MDA-MB-231 [5]; read-out: TGI,49.1 µM
same,GI50,MDA-MB-231 [5]; read-out: pGI50 (converted),1580 nM
same,CC50,MDA-MB-231 [5]; [9],> 100 µM
same,TGI,MDA-MB-231 [5]; read-out: pTGI (converted),4.9 µM
same,growth at 10 µM,CCRF-CEM,3.34%
same,growth at 10 µM,K562,7.61%
same,growth at 10 µM,LOX IMVI,4.64%
same,growth at 0.1 µM,OVCAR-3,98%
same,growth at 0.01 µM,COLO 205 [6],100%
same,GI50,SF-539 [7]; read-out: GI50,1000 nM
same,CC50,SF-539 [7]; [8],21.1 µM
same,TGI,SF-539 [7]; read-out: TGI,45.2 µM
same,GI50,SF-539 [7]; read-out: pGI50 (converted),1910 nM
same,CC50,SF-539 [7]; [9],21.4 µM
same,TGI,SF-539 [7]; read-out: pTGI (converted),4.79 µM
same,GI50,OVCAR-5; read-out: GI50,3.06 µM
same,CC50,OVCAR-5; [8],> 100 µM
same,TGI,OVCAR-5; read-out: TGI,30.1 µM
same,GI50,OVCAR-5; read-out: pGI50 (converted),3.09 µM
same,CC50,OVCAR-5; [9],> 100 µM
same,TGI,OVCAR-5; read-out: pTGI (converted),30.2 µM
same,growth at 0.1 µM,UACC-257,94%
